Source: US8618082B2, “Lupeol anti-tumor agent and uses thereof” (Wisconsin Alumni Research Foundation, priority 2004, dated 2013)
“Also recorded” adds a separate entry of the source.

Assays:
[1] = test system: CD-1 mouse; assay: Preliminary dose study, primary biomarkers of tumor promotion; format: in vivo; conditions: 0.25 and 0.5 mg of Lupeol per animal, topical; data not shown
Experimental: Studies from the inventors' laboratory and by other have shown that TPA application to mouse skin results in cutaneous edema (Katiyar et at, 1996; Liang et at, 2002). In the present study, the inventors evaluated the protective effects of topical application of Lupeol in TPA-mediated cutaneous edema in CD-1 mouse. The inventors tested four doses 0.25, 0.5, 1 and 2 mg of Lupeol per animal in the inventors' preliminary studies. […] The CD-1 mice were topically treated with Lupeol (1 and 2 mg/mouse) and 30 min later were topically treated with TPA (3.2 nmole/mouse). […] At least four determinations were made at different dorsal skin sites per mouse in each group. The data represents the mean±SE of eight mice (*p<0.01 vs TPA).

[2] = test system: IκBα protein; assay: TPA-induced phosphorylation and degradation of IκBα (western blot); format: in vivo, mouse
Experimental: FIG. 6. Inhibitory effect of Lupeol on TPA-induced activation of IKKα, and phosphorylation and degradation of IκBα in CD-1 mice: At different times after treatment, the animals were sacrificed, epidermal cytosolic was prepared, and protein expression was determined. Equal loading was confirmed by stripping the immunoblot and reprobing it for β-actin. The immunoblots shown here are representative of three independent experiments with similar results. The values above each lane indicate relative density of the band normalized to β-actin.
The animals were shaved on the dorsal side of the skin, divided into four groups and treated topically on the shaved area with either 0.4 ml vehicle (acetone), or TPA (3.2 nmol/0.4 ml acetone/animal, v/v), or Lupeol (1 or 2 mg/0.2 ml acetone/animal, w/v) followed 30 min later with TPA (3.2 nmol/0.2 ml acetone/animal). […]
Epidermis from the whole skin was separated as described earlier (Katiyar et al., 1999) and was homogenized in ice-cold lysis buffer [50 mM Tris-HCl, 150 mM NaCl, 1 mM EGTA, 1 mM EDTA, 20 mM NaF, 100 mM Na3VO4, 0.5% NP-40, 1% Triton X-100, 1 mM PMSF (pH 7.4)] with freshly added protease inhibitor cocktail, Protease Inhibitor Cocktail Set III (Calbiochem, La Jolla, Calif., USA). […] The protein content in the lysates was measured by DC BioRad assay (BioRad Laboratories, Hercules, Calif.) as per the manufacturer's protocol. […]

[3] = test system: normal human prostate epithelial cells (PrEC); assay: Viability of normal human prostate epithelial cells, MTT assay; format: cell-based; conditions: 48 hours
Experimental: FIG. 9 depicts effect of Lupeol on viability of normal human prostate epithelial cells (PrEC). Cells were treated with specified concentrations of Lupeol for 48 h, and cell viability was determined by MTT (3-[4,5-dimethylthiazol-2-yl]-2,5-diphenyl tetrazoliumbromide) assay. The values are represented as the percent viable cells where vehicle-treated cells were regarded as 100% viable. Data represents mean value of percent viable cells±S.E of three independent experiments.

[4] = test system: PARP, acinus, Bcl2, Bax, Caspase 7 in LNCaP cells; assay: PARP cleavage and apoptosis protein expression in LNCaP cells (western blot); format: cell-based, human
Experimental: FIG. 12 depicts effect of Lupeol treatment on PARP cleavage and on protein expression of acinus, in LNCaP cells. Cells were treated with specified concentrations of Lupeol for 48 h, harvested and total cell lysates were prepared. PARP cleavage and the expression of acinus, were determined by western blot analysis. Equal loading was confirmed by stripping immunoblots and reprobing them for β-actin. The immunoblots shown here are representative of three independent experiments with similar results.

[5] = test system: Fas receptor protein; assay: Fas receptor expression in LNCaP cells treated with Lupeol plus anti-Fas mAb (western blot); format: cell-based, human; conditions: anti-Fas mAb pretreated LNCaP cells treated with Lupeol
Experimental: FIG. 16 depicts cells that were treated with vehicle (DMSO+alcohol) only or specified concentrations of Lupeol alone, anti-Fas mAb or with combination (Lupeol+anti-Fas mAb) for 48 h, harvested and total cell lysates were prepared. The expression of Fas receptor protein in total cell lysate was determined by western blot analysis. Equal loading was confirmed by stripping immunoblots and reprobing them for β-actin. The immunoblots shown here are representative of three independent experiments with similar results.

## C=C(C)[C@@H]1CC[C@]2(C)CC[C@]3(C)[C@H](CC[C@@H]4[C@@]5(C)CC[C@H](O)C(C)(C)[C@@H]5CC[C@]43C)[C@@H]12 [Lupeol, Lup-20(29)-en-3β-ol]
[1]
  effect on primary biomarkers of tumor promotion: did not exhibit any significant effect
[2]; topical Lupeol 30 min prior to TPA
  TPA-induced degradation of IκBα protein: significant inhibition
[2]; topical Lupeol prior to TPA
  TPA-induced phosphorylation of IκB protein (Ser32): dose dependent inhibition
[3]; 60 μM Lupeol
  cell death of normal prostate epithelial cells: 30%
[3]; Lupeol up to 50 μM
  cell death of normal prostate epithelial cells: did not exhibit any significant cell death
[4]
  Bcl2, Bax and Caspase 7 protein expression: no change
[4]; 48 hours
  cleavage of PARP and Acinus protein: induce the cleavage of PARP protein and degradation of Acinus protein; also recorded: induced cleavage of PARP and Acinus protein
[5]
  Fas protein expression: highly increased
